According to patent US20240207373A1, “CYCLIC PEPTIDES FROM THE C-TERMINUS OF ACETYLCHOLINESTERASE FOR TREATMENT OF SKIN DISORDERS AND FOR COSMETICAL USE” (priority 2020, published 2024):
Where a SMILES comes first, the peptide text is derived from it. Where no end group is shown, it is not given here.

Legend:
[1] = test system: keratinocyte cell line HaCaTs; test: Intracellular calcium influx in keratinocyte cell line HaCaTs; format: cell-based, human; conditions: in presence of T30, FIG. 2
Source text: As described in the examples, the inventors performed intracellular calcium imaging and cell proliferation assays on the keratinocyte cell line, HaCaTs, a widely used and characterized model for human keratinocytes.
The inventors examined the ability of the acetylcholinesterase-derived linear peptides, T30 and T15, and the cyclic peptide NBP-14, to induce intracellular calcium influx into the keratinocyte cell line, and the results are shown in FIG. 2.

HaCaT cell line = test: Cell viability (cell toxicity) in HaCaT cell line; format: cell-based, human; conditions: FIG. 3A
Source text: The inventors next examined the ability of the acetylcholinesterase-derived peptides, T30 and T15, to induce proliferation of the HaCaT cell line and also tested cell viability to determine cell toxicity of NBP-14, T15 and T30 to the HaCaT cell line.

CSCC[C@@H]1NC(=O)[C@H](Cc2ccc(O)cc2)NC(=O)[C@H](CO)NC(=O)[C@H](CO)NC(=O)[C@H](Cc2c[nH]c3ccccc23)NC(=O)[C@H](CCCNC(=N)N)NC(=O)[C@H](Cc2c[nH]cn2)NC(=O)[C@H](Cc2ccccc2)NC(=O)[C@H](CCC(=O)O)NC(=O)[C@H](C)NC(=O)[C@H](CCCCN)NC(=O)[C@H](Cc2c[nH]c3ccccc23)NC(=O)[C@H](Cc2c[nH]cn2)NC(=O)[C@H](C(C)C)NC1=O [NBP-14] (cyclo(AEFHRWSSYMVHWK))
inhibition of T30-induced intracellular calcium influx [1]: significantly inhibit the effects of T30
cell viability / cytotoxic effects (HaCaT cell line): do not show induced significant cytotoxic effects

KAEFHRWSSYMVHWKNQFDHYSKQDRCSDL [T30]
cell viability / cytotoxic effects (HaCaT cell line): do not show induced significant cytotoxic effects

NQFDHYSKQDRCSDL [T15]
cell viability / cytotoxic effects (HaCaT cell line): do not show induced significant cytotoxic effects
